Biological target: T1, adenosine 2A receptor (A2AR) (Mus musculus, UniProt Q60613)
T1 construct: gene Adora2a
Assay: inhibition of NECA ([…])-stimulated CREB phosphorylation in mouse CD8+ T cells, flow cytometry
Type: cell-based

T1 sequence (Q60613 whole entry): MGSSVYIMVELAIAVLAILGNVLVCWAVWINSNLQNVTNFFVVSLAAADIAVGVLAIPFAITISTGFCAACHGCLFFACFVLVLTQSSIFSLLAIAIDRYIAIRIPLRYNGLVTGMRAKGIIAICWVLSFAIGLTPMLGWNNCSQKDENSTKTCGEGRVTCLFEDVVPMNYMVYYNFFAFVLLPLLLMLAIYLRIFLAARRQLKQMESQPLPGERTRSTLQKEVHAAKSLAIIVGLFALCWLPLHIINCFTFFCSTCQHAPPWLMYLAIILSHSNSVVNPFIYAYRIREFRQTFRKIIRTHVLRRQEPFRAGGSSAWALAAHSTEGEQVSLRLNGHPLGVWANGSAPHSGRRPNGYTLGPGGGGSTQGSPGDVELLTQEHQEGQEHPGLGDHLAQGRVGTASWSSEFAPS

With DZD2269 the IC50 was about 3 nM.

— article PMC7150468, “A2AR Antagonism with DZD2269 Augments Antitumor Efficacy of Irradiation in Murine Model” (Journal of Cancer, 2020)
